Numbers after ± are expanded uncertainties.
Assay: xn = mol fraction of the nth substance listed
Details: Liquid, Vibrating tube method

CCCCCCCCCC [decane] + CCCCCCC
mass density (363.02 K, 16000 kPa, x2 = 0.777): 658.24 ± 0.53 kg/m3 | mass density (363.02 K, 17000 kPa, x2 = 0.5219): 673.01 ± 0.53 kg/m3 | mass density (363.02 K, 17000 kPa, x2 = 0.777): 659.41 ± 0.54 kg/m3 | mass density (363.02 K, 18000 kPa, x2 = 0.5219): 674.09 ± 0.53 kg/m3 | mass density (363.02 K, 18000 kPa, x2 = 0.777): 660.5 ± 0.55 kg/m3 | mass density (363.02 K, 19000 kPa, x2 = 0.5219): 675.09 ± 0.54 kg/m3 | mass density (363.02 K, 19000 kPa, x2 = 0.777): 661.57 ± 0.56 kg/m3 | mass density (363.02 K, 20000 kPa, x2 = 0.5219): 676.07 ± 0.55 kg/m3 | mass density (363.02 K, 20000 kPa, x2 = 0.777): 662.62 ± 0.57 kg/m3 | mass density (363.02 K, 21000 kPa, x2 = 0.5219): 677.05 ± 0.56 kg/m3 | mass density (363.02 K, 21000 kPa, x2 = 0.777): 663.64 ± 0.57 kg/m3 | mass density (363.02 K, 22000 kPa, x2 = 0.5219): 677.98 ± 0.56 kg/m3 | mass density (363.02 K, 22000 kPa, x2 = 0.777): 664.64 ± 0.58 kg/m3 | mass density (363.02 K, 23000 kPa, x2 = 0.5219): 678.94 ± 0.57 kg/m3 | mass density (363.02 K, 23000 kPa, x2 = 0.777): 665.63 ± 0.59 kg/m3 | mass density (363.02 K, 24000 kPa, x2 = 0.5219): 679.87 ± 0.58 kg/m3 | mass density (363.02 K, 24000 kPa, x2 = 0.777): 666.6 ± 0.6 kg/m3 | mass density (363.02 K, 25000 kPa, x2 = 0.5219): 680.76 ± 0.59 kg/m3 | mass density (363.02 K, 25000 kPa, x2 = 0.777): 667.53 ± 0.61 kg/m3 | mass density (363.03 K, 1000 kPa, x2 = 0.0531): 674.85 ± 0.42 kg/m3 | mass density (363.03 K, 1000 kPa, x2 = 0.952): 627.08 ± 0.44 kg/m3 | mass density (363.03 K, 2000 kPa, x2 = 0.0531): 676.04 ± 0.42 kg/m3 | mass density (363.03 K, 2000 kPa, x2 = 0.952): 628.62 ± 0.44 kg/m3 | mass density (363.03 K, 3000 kPa, x2 = 0.0531): 677.23 ± 0.43 kg/m3 | mass density (363.03 K, 3000 kPa, x2 = 0.952): 630.14 ± 0.45 kg/m3 | mass density (363.03 K, 4000 kPa, x2 = 0.0531): 678.38 ± 0.43 kg/m3 | mass density (363.03 K, 4000 kPa, x2 = 0.952): 631.64 ± 0.46 kg/m3 | mass density (363.03 K, 5000 kPa, x2 = 0.0531): 679.52 ± 0.44 kg/m3 | mass density (363.03 K, 5000 kPa, x2 = 0.952): 633.12 ± 0.46 kg/m3 | mass density (363.03 K, 6000 kPa, x2 = 0.0531): 680.65 ± 0.44 kg/m3 | mass density (363.03 K, 6000 kPa, x2 = 0.952): 634.56 ± 0.47 kg/m3 | mass density (363.03 K, 7000 kPa, x2 = 0.0531): 681.75 ± 0.45 kg/m3 | mass density (363.03 K, 7000 kPa, x2 = 0.952): 635.98 ± 0.48 kg/m3 | mass density (363.03 K, 8000 kPa, x2 = 0.0531): 682.84 ± 0.45 kg/m3 | mass density (363.03 K, 8000 kPa, x2 = 0.952): 637.36 ± 0.48 kg/m3 | mass density (363.03 K, 9000 kPa, x2 = 0.0531): 683.92 ± 0.46 kg/m3 | mass density (363.03 K, 9000 kPa, x2 = 0.952): 638.71 ± 0.49 kg/m3 | mass density (363.03 K, 10000 kPa, x2 = 0.0531): 684.98 ± 0.46 kg/m3 | mass density (363.03 K, 10000 kPa, x2 = 0.952): 640.03 ± 0.5 kg/m3 | mass density (363.03 K, 11000 kPa, x2 = 0.0531): 686.02 ± 0.47 kg/m3 | mass density (363.03 K, 11000 kPa, x2 = 0.952): 641.33 ± 0.51 kg/m3 | mass density (363.03 K, 12000 kPa, x2 = 0.0531): 687.05 ± 0.47 kg/m3 | mass density (363.03 K, 12000 kPa, x2 = 0.952): 642.61 ± 0.51 kg/m3 | mass density (363.03 K, 13000 kPa, x2 = 0.0531): 688.07 ± 0.48 kg/m3 | mass density (363.03 K, 13000 kPa, x2 = 0.952): 643.86 ± 0.52 kg/m3 | mass density (363.03 K, 14000 kPa, x2 = 0.0531): 689.07 ± 0.49 kg/m3 | mass density (363.03 K, 14000 kPa, x2 = 0.952): 645.09 ± 0.53 kg/m3 | mass density (363.03 K, 15000 kPa, x2 = 0.0531): 690.05 ± 0.49 kg/m3 | mass density (363.03 K, 15000 kPa, x2 = 0.952): 646.3 ± 0.54 kg/m3 | mass density (363.03 K, 16000 kPa, x2 = 0.0531): 691.03 ± 0.5 kg/m3 | mass density (363.03 K, 16000 kPa, x2 = 0.952): 647.49 ± 0.55 kg/m3 | mass density (363.03 K, 17000 kPa, x2 = 0.0531): 691.98 ± 0.51 kg/m3 | mass density (363.03 K, 17000 kPa, x2 = 0.952): 648.66 ± 0.55 kg/m3 | mass density (363.03 K, 18000 kPa, x2 = 0.0531): 692.93 ± 0.51 kg/m3 | mass density (363.03 K, 18000 kPa, x2 = 0.952): 649.8 ± 0.56 kg/m3 | mass density (363.03 K, 19000 kPa, x2 = 0.0531): 693.87 ± 0.52 kg/m3 | mass density (363.03 K, 19000 kPa, x2 = 0.952): 650.92 ± 0.57 kg/m3 | mass density (363.03 K, 20000 kPa, x2 = 0.0531): 694.79 ± 0.53 kg/m3 | mass density (363.03 K, 20000 kPa, x2 = 0.952): 652.02 ± 0.58 kg/m3 | mass density (363.03 K, 21000 kPa, x2 = 0.0531): 695.7 ± 0.53 kg/m3 | mass density (363.03 K, 21000 kPa, x2 = 0.952): 653.1 ± 0.59 kg/m3 | mass density (363.03 K, 22000 kPa, x2 = 0.0531): 696.6 ± 0.54 kg/m3 | mass density (363.03 K, 22000 kPa, x2 = 0.952): 654.16 ± 0.6 kg/m3 | mass density (363.03 K, 23000 kPa, x2 = 0.0531): 697.47 ± 0.55 kg/m3 | mass density (363.03 K, 23000 kPa, x2 = 0.952): 655.2 ± 0.6 kg/m3 | mass density (363.03 K, 24000 kPa, x2 = 0.0531): 698.37 ± 0.55 kg/m3 | mass density (363.03 K, 24000 kPa, x2 = 0.952): 656.21 ± 0.61 kg/m3 | mass density (363.03 K, 25000 kPa, x2 = 0.0531): 699.21 ± 0.56 kg/m3 | mass density (363.03 K, 25000 kPa, x2 = 0.952): 657.21 ± 0.62 kg/m3 | mass density (363.06 K, 1000 kPa, x2 = 0.2594): 666.7 ± 0.42 kg/m3 | mass density (363.06 K, 2000 kPa, x2 = 0.2594): 667.89 ± 0.43 kg/m3 | mass density (363.06 K, 3000 kPa, x2 = 0.2594): 669.1 ± 0.43 kg/m3 | mass density (363.06 K, 4000 kPa, x2 = 0.2594): 670.27 ± 0.44 kg/m3 | mass density (363.06 K, 5000 kPa, x2 = 0.2594): 671.44 ± 0.44 kg/m3 | mass density (363.06 K, 6000 kPa, x2 = 0.2594): 672.61 ± 0.45 kg/m3 | mass density (363.06 K, 7000 kPa, x2 = 0.2594): 673.77 ± 0.45 kg/m3 | mass density (363.06 K, 8000 kPa, x2 = 0.2594): 674.91 ± 0.46 kg/m3 | mass density (363.06 K, 9000 kPa, x2 = 0.2594): 676.05 ± 0.46 kg/m3 | mass density (363.06 K, 10000 kPa, x2 = 0.2594): 677.17 ± 0.47 kg/m3 | mass density (363.06 K, 11000 kPa, x2 = 0.2594): 678.26 ± 0.48 kg/m3 | mass density (363.06 K, 12000 kPa, x2 = 0.2594): 679.34 ± 0.48 kg/m3 | mass density (363.06 K, 13000 kPa, x2 = 0.2594): 680.41 ± 0.49 kg/m3 | mass density (363.06 K, 14000 kPa, x2 = 0.2594): 681.46 ± 0.49 kg/m3 | mass density (363.06 K, 15000 kPa, x2 = 0.2594): 682.5 ± 0.5 kg/m3 | mass density (363.06 K, 16000 kPa, x2 = 0.2594): 683.52 ± 0.51 kg/m3 | mass density (363.06 K, 17000 kPa, x2 = 0.2594): 684.53 ± 0.51 kg/m3 | mass density (363.06 K, 18000 kPa, x2 = 0.2594): 685.52 ± 0.52 kg/m3 | mass density (363.06 K, 19000 kPa, x2 = 0.2594): 686.5 ± 0.53 kg/m3 | mass density (363.06 K, 20000 kPa, x2 = 0.2594): 687.43 ± 0.54 kg/m3 | mass density (363.06 K, 21000 kPa, x2 = 0.2594): 688.35 ± 0.54 kg/m3 | mass density (363.06 K, 22000 kPa, x2 = 0.2594): 689.23 ± 0.55 kg/m3 | mass density (363.06 K, 23000 kPa, x2 = 0.2594): 690.14 ± 0.56 kg/m3 | mass density (363.06 K, 24000 kPa, x2 = 0.2594): 691.03 ± 0.56 kg/m3 | mass density (363.06 K, 25000 kPa, x2 = 0.2594): 691.89 ± 0.57 kg/m3
